Marks after values point to notes of the source that are not given here.
Assays:
[1] = test system: glutathione reductase (GR); assay: Glutathione reductase (GR) activity on the gastric mucous, ulcer induced by ethanol; format: in vivo; settings: oral administration, gastric mucous of rats
Protocol: For measuring the GR activity, the enzymatic reaction was prepared with 100 μL of the sample (after centrifugation and dilution of the supernatant in phosphate buffer pH=7.4 in a 1:10 ratio) and 150 μL of the mixture formed by EDTA (0.20 mM), oxidized glutathione (1 mM) and NADPH (0.1 mM). The absorbance was read at 365 nm, between 0 and 10 minutes, according to the technique developed by Carlberg & Mannervik, 1985.
Rats Unib-WH were submitted to fasting for 24 hours with water ad libitum. On the day of the trial, they were divided into […] groups: saline as negative control, lansoprazole as positive control and four groups with the A. brachypoda roots extracts at different concentrations (dosages of 10, 30, 100 and 300 mg·Kg-1) dissolved in saline at 10 mL·Kg-1 concentrations.
The animals received the predicted treatment for each group and one hour later, 1 mL of absolute ethanol was orally administered.
After one hour of ulcer induction, the rats were sacrificed by cervical dislocation and their stomachs were withdrawn for quantification of injuries.
The injury areas were calculated, the stomachs were homogenized, the cytosolic extracts were prepared and the membranes for conducting the biochemical assays.

[2] = test system: glutathione peroxidase (GPx); assay: Glutathione peroxidase (GPx) activity on the gastric mucous, ulcer induced by ethanol; format: in vivo; settings: oral administration, gastric mucous of rats
Protocol: Rats Unib-WH were submitted to fasting for 24 hours with water ad libitum. On the day of the trial, they were divided into 7 groups: saline as negative control, lansoprazole as positive control and four groups with the A. brachypoda roots extracts at different concentrations (dosages of 10, 30, 100 and 300 mg·Kg-1) dissolved in saline at 10 mL·Kg-1 concentrations.

[3] = test system: GSH; assay: Glutathione (GSH) levels on the gastric mucous, ulcer induced by ethanol; format: in vivo; settings: oral administration, gastric mucous of rats
Protocol: To proceed with the measurement of the total glutathione content, the method disclosed by Anderson in 1985 was used, which bases on the total oxidation of the reduced glutathione (GSH) present in a sample to its oxidized form (GSSG), through the incubation of the sample with dithiobis nitrobenzoic acid (DTNB). The reduced DTNB acquires a yellow coloration, which can be spectrophotometrically determined. The GSSG generated is reduced by the action of the enzyme glutathione reductase in the presence of NADPH. The GSH formed oxidizes again, generating a continuous cycle, in which the reduction speed of the DTNB (and its resulting increase in the absorbance at 412 nm) is proportional to the total amount of glutathione (GSH+GSSG). To proceed with the measurement of the total glutathione content, the cytosolic extracts obtained from the stomachs of the animals of the ulcer induced by ethanol trials were used. […] The plate was placed on the spectrophotometer reader, where it was maintained for 5 minutes in a temperature of 30° C. After this period, 15 μL of glutathione reductase was added and the increase on the absorbance was registered at 412 nm. […]

[4] = test system: myeloperoxidase (MPO); assay: MPO activity of the gastric mucous, ulcer induced by acetic acid; format: in vivo, rats; settings: oral, extract 300 mg/kg, lansoprazole 30 mg/kg
Protocol: The myeloperoxidase activity was determined through the method disclosed by Krawisz et al. in 1984. The samples were homogenized in hexadecyl trimethyl ammonium bromide (HTAB) buffer at 0.5% (w/v) in saline phosphate buffer (50 mM, pH 6.0) with final dilution of 1:20 (w/v) until the obtainment of an uniform aspect.
The homogenate was submitted to the ultrasonic bath for 10 seconds, followed by a triple process for freezing and defrosting, which facilitates the rupture of the cell structures and, as a consequence, the release of the enzyme.
The sample was centrifuged at 7000 G, during 10 minutes and the MPO activity was determined following the kinetics of the reaction faced to hydrogen peroxide.
In an ELISA plate, 50 μL of the supernatant and 150 μL of the color reactive and hydrogen peroxide (0.066%) were placed in phosphate buffer (50 mM, pH 6.0).
(§4) The absorbance was determined at 450 nm and the enzyme activity was calculated by the interpolation of the standard curve, performed with MPO originated from human neutrophils.
(§5) One unity of MPO is defined as the necessary amount to degrade 1 mmol/minute of hydrogen peroxide at 25° C. The results were expressed as U/g of protein.

[5] = test system: myeloperoxidase (MPO); assay: MPO activity, ulcer induced by ethanol; format: in vivo; settings: rats
Protocol: The myeloperoxidase activity was determined through the method disclosed by Krawisz et al. in 1984. The samples were homogenized in hexadecyl trimethyl ammonium bromide (HTAB) buffer at 0.5% (w/v) in saline phosphate buffer (50 mM, pH 6.0) with final dilution of 1:20 (w/v) until the obtainment of an uniform aspect. […]
The sample was centrifuged at 7000 G, during 10 minutes and the MPO activity was determined following the kinetics of the reaction faced to hydrogen peroxide. […]
as §4, §5

[6] = test system: gastric acid secretion; assay: Pylorus ligature and evaluation of the gastric juice parameters; format: in vivo, rats; settings: intra-duodenal administration; pylorus ligature, 4 hours
Protocol: The rats were in fasting for 48 hours with water ad libitum. On the day of the trial, the animals were divided into four groups: saline, lansoprazole, cimetidine and treated with A. brachypoda extract.
The rats were anesthetized and underwent a longitudinal incision just below the xiphoid apophysis for the pylorus ligature.
The drug administration was carried out immediately after the ligature, intraduodenally. The incisions were sutured, and after four hours of surgery, the rats were sacrificed. The stomachs were carefully withdrawn and acid secretion was collected. After centrifugation, the volume and pH of the secretion of each animal was measured.

[7] = test system: ulcer induced by acetic acid; assay: Healing of the ulcer induced by acetic acid, injury area; format: in vivo, rats
Protocol: The rats were anaesthetized with xilazine chloridrate and ketamine for performing a longitudinal incision right under the xiphoid apophysis.
The previous wall of the stomach was exposed and an area of the serous tissue was delimited with a plastic ring upon which was added 50 μL of acetic acid absolute with the aid of an automatic micropipette, the contact between the acid and the serous tissue being maintained during 60 seconds.
Following, the area was cleaned with saline solution and the animals had their abdominal cavities closed, being maintained in rest until complete recovery of the anesthesia and, then, they were placed at the vivarium.
(§1) After 48 hours of the surgical procedure, the oral administration of the treatments was initiated (once daily for 7 and 14 days) with EAB (300 mg/kg), lansoprazole (30 mg/kg—positive control) and vehicle (saline solution 0.9%—negative control).
(§2) The animals were weighted and observed from the induction of the injury to the end of treatments. At the end of this period, the animals were sacrificed; their stomachs were removed and opened toward the great curvature to the measurement of the ulcerative injury area.

[8] = Sub-chronic toxicity evaluation (organ and body weight), acetic acid ulcer model; format: in vivo, rats; settings: oral
Protocol: as §1, §2
(§3) Tissue sections were also collected for preparing histological blades. The animals also had heart, lungs, liver, kidneys and testicles collected and weighted in order to verify possible signs of toxicity.

[9] = test system: ulcer induced by acetic acid; assay: Histological analysis of stomachs, ulcer induced by acetic acid; format: in vivo, rats; settings: treated for 14 days, compared to the saline group
Protocol: as §3
The histological cuts and blades were prepared by fixing the material in Alfac (formalin, alcohol 80% and acetic acid) for 24 hours. The pieces were, then, dehydrated and included in an appropriate medium solid.
Subsequently, the middle blocks were cut ([…] thick) on a microtome, serially. The samples were submitted to hematoxylin-eosin (HE) coloration for general observation of the structure and cellularity in light microscopy.

SMILES | GR (nmol/min/mg of protein) [1] | GPx (nmol/min/mg of protein) [2] | GSH (nmol/mg of protein) [3] | MPO (U/mg of protein) ([4]; 7 consecutive days) | MPO (U/mg of protein) ([4]; 14 consecutive days) | MPO (U/mg of protein) [5] | pH of the gastric acid secretion [6] | Ulcerogenic injury area (FIG. 6) ([7]; 7 consecutive days, oral, extract 300 mg/kg, lansoprazole 30 mg/kg) | Evolution of the healing process, recovery of the gastric mucous (FIG. 8) ([7]; during 14 days of oral treatment) | Evolution of the corporal weight (FIG. 5) ([8]; sub-chronic treatment, 14 days) | Relation between the weight of the organs and the animals: lungs (FIG. 3) ([8]; treated for 7 days) | Photomicrographs of stomachs (FIG. 11) [9] | Volume of gastric acid secretion (mL) [6]
Cc1c(OCC(F)(F)F)ccnc1C[S+]([O-])c1nc2ccccc2[nH]1 (centres unmarked) [Lansoprazole, lansoprazole] | 10.53 ± 0.42 nmol/min/mg of protein | 33.54 ± 2.12 nmol/min/mg of protein | 13.45 ± 2.25 nmol/mg of protein | 110.50 ± 33.43 U/mg of protein | 98.05 ± 15.99 U/mg of protein | 0.6 0.04* U/mg of protein | 5.41 0.04*** | reduction of the injury area | acceleration | no significative statistical difference | reduction of this relation in the lungs | speeded up the healing of the gastric mucous | –
CN/C(=N/CCSCc1nc[nH]c1C)NC#N [Cimetidine, cimetidine] | – | – | – | – | – | – | 5.39 0.11*** | – | – | – | – | – | 0.31 0.03** mL

Reference: US20170181999A1, “USE OF COMPOUNDS PRODUCED FROM ARRABIDAEA BRACHYPODA EXTRACTS AS ANTI-ULCEROGENIC AGENTS” (UNIVERSIDADE ESTADUAL PAULISTA "JULIO DE MESQUITA FILHO" - …, priority 2013, published 2017)
